We go through one compound from patent US11925656B2, “Biological total joint replacement” (priority 2014, dated 2024).

The test system of experiment [1] is ADAMTS-5 gene expression. In words: ADAMTS-5 gene expression in synovium by real-time PCR, rabbit arthritis model. The experiment is classed as in vivo. The conditions noted are these: therapeutic groups, oral days 42-70, vs control. The source says:
(§1) The study was approved by the Institutional Animal Care and Use Committee (IACUC) of Thomas D. Morris, Inc. 28 New Zeeland White rabbits were selected for the study. Six such were randomly assigned to one of four groups; prophylactic cyanidin-3-glycoside (C3G)(referred to figures as Cl 1-42), prophylactic protocatechuic acid (PCA)(referred to in figures as PCA 1-42), therapeutic C3G (referred to in figures as Cl 42-70), and therapeutic PCA (referred to in figures as PCA 42-70). There were four controls, two each to the prophylactic and therapeutic groups.
(§2) The prophylactic groups were given PROC3G™ by Chromadex™ at a dose of 30 mg/kg of body weight of either C3G or PCA by mouth, 7 times per week for 42 days. The therapeutic groups' treatment was initiated on day 42 with a daily dose of PROC3G™ by Chromadex™ 7 times per week for 4 weeks. The dose of 30 mg of cyanidin-3-glucoside per kg of body weight calculates to be 0.177 millimoles per kg body weight. The dose of PCA was the same in terms of millimoles per kg body weight.
(§3) The experimental rabbits underwent surgery with an intent to create a severe degenerative arthritis by cutting the medial collateral ligament, the anterior cruciate ligament and removing the medial meniscus. […]
Synovial Tissue (Synovium)—Gene Expression Level Detected by Real-Time PCR
(In qPCR the cycle at which signal appears reflects the starting amount.)

The subject of experiment [2] is TGF-beta. In words: TGF-beta in synovium by ELISA, rabbit arthritis model. In kind it is in vivo. The conditions noted are these: therapeutic group, oral days 42-70, vs control.
Description: as §1
The prophylactic groups were given PROC3G™ by Chromadex™ at a dose of 30 mg/kg of body weight of either C3G or PCA by mouth, 7 times per week for 42 days. The therapeutic groups' treatment was initiated on day 42 with a daily dose of PROC3G™ by Chromadex™ 7 times per week for 4 weeks. […]
TGF-β induces apoptosis in numerous cell types. […] It is a type of cytokine which plays a role in immunity, cancer, bronchial asthma, heart disease, diabetes, hereditary hemorrhagic telangiectasia, Marfan syndrome, vascular Ehlers-Danlos syndrome Loeys-Dietz syndrome, Parkinson's disease, and AIDS. • Synovial Fluid—Detected by ELISA • TGF-beta was decreased in all groups. See FIG. 2B. • Synovial Tissue (Synovium)—Detected by ELISA • TGF-beta was increased in the C3G therapeutic group.
(In an ELISA, binding on a coated surface is turned into a signal by an enzyme label.)

In experiment [3] the test system is MMP-3. In words: MMP-3 expression in cartilage, histochemical staining and scoring, rabbit arthritis model. The experiment is classed as in vivo.
Description: as §1, §2
(§4) The experimental rabbits underwent surgery with an intent to create a severe degenerative arthritis by cutting the medial collateral ligament, the anterior cruciate ligament and removing the medial meniscus. A partial thickness laceration was made longitudinally on the lateral femoral condyle for future assessment of potential for repair. The surgery was performed by two licensed veterinarians. One surgeon was very experienced. The other surgeon was a recent graduate.
(§5) At necropsy, the synovial fluid was harvested percutaneously and upon arthrotomy. The synovium was harvested from posterior compartment. The patella and adjacent synovium was procured as a separate specimen as was the medial and lateral condyle.
(§6) The synovial fluid and half of the synovium was frozen and sent to BioBoston Laboratory for chemical analysis. The other half of the synovium and bone was sent to McClinchery Histology in Stockbridge, Mich. for histological preparation and staining. Patellar slides were sent to BioBoston Contract Laboratories for histochemical staining and ICRS grading. Sample slides were examined for Lubricin at Myron Spector laboratory.
MMP3 is known as matrix metallopeptidase 3, or stromelysin 1 or progelatinase. Proteins of the matrix metalloproteinase (MMP) family are involved in the breakdown of 20 extracellular matrix in normal physiological processes, such as embryonic development, reproduction, and tissue remodeling, as well as in disease processes, such as arthritis and metastasis. […] See FIG. 2C. • Synovial Tissue (Synovium)—Detected by ELISA • MMP-3 levels were reduced in all four groups. See FIG. 9B. • Synovial Tissue (Synovium)—Gene Expression Level Detected by Real-Time PCR • MMP-3 gene expression was decreased in all groups. See FIG. 13A. • Histochemical Scoring Analysis

In experiment [4] the test system is ADAMTS-5. In words: ADAMTS-5 in synovial fluid by ELISA, rabbit arthritis model. In kind it is in vivo.
Description: as §1, §2, §4, §5
(§7) The synovial fluid and half of the synovium was frozen and sent to BioBoston Laboratory for chemical analysis. The other half of the synovium and bone was sent to McClinchery Histology in Stockbridge, Mich. for histological preparation and staining. […]
(§8) Synovial Fluid—Detected by ELISA

For experiment [5], the system named is TIMP-1. In words: TIMP-1 in synovial fluid by ELISA, rabbit arthritis model. The experiment is classed as in vivo. The conditions noted are these: statistical significance not evident.
Description: as §1, §2, §3, §8

Experiment [6] concerns MMP3. In words: MMP3 in synovial fluid by ELISA, rabbit arthritis model. In kind it is in vivo. The conditions noted are these: therapeutic groups, oral days 42-70, vs control.
Description: as §1
(§9) The prophylactic groups were given PROC3G™ by Chromadex™ at a dose of 30 mg/kg of body weight of either C3G or PCA by mouth, 7 times per week for 42 days. The therapeutic groups' treatment was initiated on day 42 with a daily dose of PROC3G™ by Chromadex™ 7 times per week for 4 weeks. The dose of 30 mg of cyanidin-3-glucoside per kg of body weight calculates to be 0.177 millimoles per kg body weight. The dose of PCA was the same in terms of millimoles per kg body weight. […]
MMP3 is known as matrix metallopeptidase 3, or stromelysin 1 or progelatinase. […] See FIG. 2C. • Synovial Tissue (Synovium)—Detected by ELISA • MMP-3 levels were reduced in all four groups. See FIG. 9B. • Synovial Tissue (Synovium)—Gene Expression Level Detected by Real-Time PCR • MMP-3 gene expression was decreased in all groups. […]

For experiment [7], the system named is IGF-1. In words: IGF-1 in plasma, rabbit arthritis model. The experiment is classed as in vivo. The conditions noted are these: control group 25 PG/ML.
Description: as §1, §2, §4
Blood testing was performed prior to necropsy on C3G, PCA, glucose, MMP-3 and IGF-1 to assess any systemic effects.

The test system of experiment [8] is C-reactive protein (CRP). In words: C-reactive protein (CRP) in plasma after knee surgery. In kind it is in vivo, rabbit. As to the method: C-reactive protein (CRP) is a protein found in the blood plasma, the levels of which rise in response to inflammation (i.e., C-reactive protein is an acute-phase protein). Its physiological role is to bind to phosphocholine expressed on the surface of dead or dying cells (and some types of bacteria) in order to activate the complement system via the C1Q complex. CRP rises within two hours of the onset of inflammation, up to a 50,000-fold, and peaks at 48 hours. […] CRP is thus a screen for inflammation.
Knee surgery was performed to create a severe irreparable degenerative knee joint, which in turn elevated the CRP in the plasma to average of […]. A historical normal amount of CRP is 3.15 micrograms/mL. See Sun H, et al., Am J Pathol. October 2005; 167(4): 1139-1148. Rabbit CRP levels are close to the mean values of healthy middle-aged humans (2.82 mg/L) reported in the literature. See Ockene I S, et al., Clin Chem. 2001; 47:444-450.
The controls in the study were animals that had surgery and received no treatment. The prophylaxis test groups had the surgery and received 6 weeks of oral C-3-G or PCA 7 times per week as described in example 1. The therapeutic treatment group had surgery, received no treatment for 41 days and then at day 42 received oral C-3-G or PCA 7 times per week as described in example 1.

Experiment [9] concerns lubricin. In words: Lubricin in synovium by ELISA, rabbit arthritis model. In kind it is in vivo.
Description: as §1, §2, §4, §5, §7
(§10) Synovial Tissue (Synovium)—Detected by ELISA

For experiment [10], the system named is lymphocytes. In words: Number of lymphocytes in synovial fluid, rabbit arthritis model. In kind it is in vivo. The conditions noted are these: therapeutic groups, oral days 42-70, vs control.
Description: as §1, §2, §4, §5
In addition to testing for the increase or decrease of various factors and cytokines, tests were run to count the number of white blood cells, including polymorphonuclear leukocytes (PMN), macrophages (Mac) and lymphocytes (Lym). […]

Experiment [11] deals with MMP-1. In words: MMP-1 in synovium by ELISA, rabbit arthritis model. The experiment is classed as in vivo. The conditions noted are these: therapeutic group, oral days 42-70, vs control.
Description: as §1, §2
The experimental rabbits underwent surgery with an intent to create a severe degenerative arthritis by cutting the medial collateral ligament, the anterior cruciate ligament and removing the medial meniscus. A partial thickness laceration was made longitudinally on the lateral femoral condyle for future assessment of potential for repair. […]

Experiment [12] relates to TNF-alpha. In words: TNF-alpha in synovial fluid by ELISA, rabbit arthritis model. The experiment is classed as in vivo. The conditions noted are these: therapeutic groups, oral 4 weeks, vs control; not statistically significant.
Description: as §1, §2, §3, §8

The test system of experiment [13] is MMP-13. In words: MMP-13 in synovium by ELISA, rabbit surgically induced knee arthritis. In kind it is in vivo. The conditions noted are these: vs untreated control, not statistically significant.
Description: as §1, §2, §4, §5, §6, §10

Experiment [14] concerns IL-1 beta. In words: IL-1 beta in synovium by ELISA, rabbit arthritis model. The experiment is classed as in vivo. The conditions noted are these: therapeutic groups, oral days 42-70, vs control.
Description: as §1, §9
Interleukin-1 beta (IL-1p) also known as catabolic, is a cytokine protein. […] Increased production of IL-1B causes a number of different auto-inflammatory syndromes. • Synovial Fluid—Detected by ELISA • Levels of IL-1 beta were decreased in all groups. See FIG. 2A. • Synovial Tissue (Synovium)—Detected by ELISA

The mark [15] stands for this setting: prophylactic groups, oral days 1-42.
Where [16] appears, read: prophylactic groups, oral days 1-42, vs control.
[17] abbreviates: therapeutic groups, oral days 42-70.
[18] abbreviates: therapeutic groups, oral days 42-70, vs control.

Molecules are shown by their SMILES.

As to `OC[C@H]1O[C@@H](Oc2cc3c(O)cc(O)cc3[o+]c2-c2ccc(O)c(O)c2)[C@H](O)[C@@H](O)[C@@H]1O` [C3G, cyanidin-3-glucoside, reference compound], the “ADAMTS-5 gene expression in synovium” value in experiment [1] is listed as “decreased”. Moreover, in [2], the TGF-beta in synovium result is recorded as “increased”. The “histochemical staining for the presence of MMP-3 in cartilage” value in [3] (setting [15]) is given as “very minimal positive stain”; in experiment [3] (setting [17]) it was “no staining”. The “MMP-3 expression in cartilage” value in experiment [3] (setting [16]) and in experiment [3] (setting [18]) was “reduced” each time. In addition, the “ADAMTS-5 in synovial fluid” value in experiment [4] (setting [16]) and in experiment [4] (setting [18]) was “decreased” each time. Besides, the “TIMP-1 levels in synovial fluid” value in experiment [5] (setting [16]) and in experiment [5] (setting [18]) was “elevated” each time. In [6], the “MMP3 in synovial fluid” value is “decreased”. Moreover, the results for the “IGF-1 in the plasma” value in [7] (setting [15]) and in [7] (setting [17]) were 15.8 pg/mL and 28.5 pg/mL, respectively. Moreover, in experiment [8] (given by oral route immediately after injury), the “CRP, an indicator of inflammation” value is recorded as “kept to normal levels”. For the same compound, the “plasma CRP level” value was determined as 3.1 micrograms/mL in experiment [8] (prophylaxis test group, 6 weeks oral treatment from surgery, untreated control at 42 days 8.8 mg/mL) and 28.3 mg/mL in experiment [8] (therapeutic group, no treatment for 6 weeks after surgery, then 4 weeks oral treatment). The lubricin in synovium entry in experiment [9] (setting [16]) and in [9] (setting [18]) was “increased” throughout. For the same compound, the “number of lymphocytes in synovial fluid” value in [10] is “decreased”. Moreover, the MMP-1 in synovium entry in [11] was “decrease”. The “TNF-alpha levels in synovial fluid” value in experiment [12] was “slight increase”. In addition, the “MMP-13 levels in synovium” value was “increased slightly” in experiment [13] (prophylactic groups, oral 7 times per week days 1-42 (C3G 30 mg/kg, PCA 26.4 mg/kg)) and “slightly decreased” in [13] (therapeutic groups, oral 7 times per week days 42-70 (C3G 30 mg/kg, PCA 26.4 mg/kg)). In [14], the “levels of IL-1 beta in synovium” value was “decreased”.
